{
  "source": "patent EP3263567A1",
  "about": "“CARBOXAMIDE-SUBSTITUTED PYRAZOLES AND TRI(HETERO)ARYL-PYRAZOLES FOR USE IN METHODS OF TREATING AND / OR PREVENTING CARDIOVASCULAR DISEASES AND / OR COMORBIDITIES THEREOF” (AiCuris Anti-infective Cures GmbH, priority 2016, dated 2018)",
  "target": "T1, human HCN4 currents (Homo sapiens, UniProt Q9Y3Q4)",
  "T1 construct": "CHO cells transiently expressing the HCN4 channel; expressed in transfected cells; host or cells: CHO (ATCC CCL-61), transiently transfected",
  "T1 sequence (Q9Y3Q4 1-1203)": "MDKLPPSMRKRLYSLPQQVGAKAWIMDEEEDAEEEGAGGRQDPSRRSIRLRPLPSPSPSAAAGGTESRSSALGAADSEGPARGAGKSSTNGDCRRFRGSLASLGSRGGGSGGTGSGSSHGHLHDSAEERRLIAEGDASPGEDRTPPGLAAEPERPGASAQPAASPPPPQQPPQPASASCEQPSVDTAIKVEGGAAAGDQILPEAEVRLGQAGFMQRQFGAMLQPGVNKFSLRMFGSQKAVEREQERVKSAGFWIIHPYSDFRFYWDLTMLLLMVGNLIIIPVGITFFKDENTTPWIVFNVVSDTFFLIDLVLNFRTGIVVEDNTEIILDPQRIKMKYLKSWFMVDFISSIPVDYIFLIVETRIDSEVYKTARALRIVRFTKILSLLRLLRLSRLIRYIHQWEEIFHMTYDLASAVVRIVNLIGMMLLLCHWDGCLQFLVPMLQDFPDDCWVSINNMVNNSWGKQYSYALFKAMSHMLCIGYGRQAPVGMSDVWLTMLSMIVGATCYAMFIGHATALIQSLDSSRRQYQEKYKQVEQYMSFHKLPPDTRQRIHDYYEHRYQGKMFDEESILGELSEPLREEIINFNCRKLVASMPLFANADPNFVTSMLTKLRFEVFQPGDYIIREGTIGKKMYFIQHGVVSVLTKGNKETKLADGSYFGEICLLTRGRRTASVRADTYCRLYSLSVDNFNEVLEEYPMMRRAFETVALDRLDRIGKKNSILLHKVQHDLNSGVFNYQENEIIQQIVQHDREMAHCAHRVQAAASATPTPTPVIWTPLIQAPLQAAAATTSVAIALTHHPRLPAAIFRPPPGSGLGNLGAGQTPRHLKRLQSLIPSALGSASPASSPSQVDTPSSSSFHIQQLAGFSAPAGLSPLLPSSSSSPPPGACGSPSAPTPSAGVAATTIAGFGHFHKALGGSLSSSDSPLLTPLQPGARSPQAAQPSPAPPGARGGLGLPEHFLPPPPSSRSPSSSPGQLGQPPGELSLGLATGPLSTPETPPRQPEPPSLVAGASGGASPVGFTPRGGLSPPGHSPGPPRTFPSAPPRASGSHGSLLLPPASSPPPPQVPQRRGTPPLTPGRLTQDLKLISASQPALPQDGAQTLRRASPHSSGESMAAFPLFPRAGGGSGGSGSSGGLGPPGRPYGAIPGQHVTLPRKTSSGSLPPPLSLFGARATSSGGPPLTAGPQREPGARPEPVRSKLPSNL",
  "test": "Whole-cell patch-clamp, HCN4 steady state currents in transiently transfected CHO cells",
  "assay_type": "cell-based",
  "settings": "CHO cells transiently expressing HCN4, steady state current at -120 mV, n=3; read-out: IC50 (inhibition of HCN4 currents)",
  "description": "The following six compounds in accordance with the invention: • Compound A: [drawing 81] i.e. 4-[5-[3-Chloro-5-(trifluoromethoxy) phenyl]-1-(pyridin-3-yl)-1H-pyrazol-3-yl]-5,6-dihydro-7H-pyrrolo[3,4-d]pyrimidin-7-one, • Compound B: [drawing 82] i.e. 4-[5-[3-Chloro-5-(trifluoromethoxy) phenyl]-1-(pyridin-3-yl)-1H-pyrazol-3-yl]-2,3-dihydro-1H-pyrrolo[3,4-c] pyridin-1-one, • Compound C: [drawing 83] i.e. 4-[5-[3-Chloro-5-(trifluoromethoxy) phenyl]-1-(pyridin-3-yl)-1H-pyrazol-3-yl]-5,6-dihydro-2-methyl-7H-pyrrolo[3, 4-d] pyrimidin-7-one, • Compound D: [drawing 84] i.e. 3-Amino-4-[5-[3-chloro-5-(trifluoromethoxy) phenyl]-1-(pyridin-3-yl)-1H-pyrazol-3-yl-carbonyl]-1,5-dihydro-2H-pyrrol-2-one, • Compound E: [drawing 85] i.e. 1-[[5-[3-Chloro-5-(trifluoromethoxy) phenyl]-1-(pyridin-3-yl)-1H-pyrazol-3-yl]carbonyl]-imidazolidin-4-one, • Compound F: [drawing 86] i.e. 4-[5-[3-Chloro-5-(trifluoromethoxy) phenyl]-1-(3-cyano-4-fluoro-phenyl)-1H-pyrazol-3-yl]-5,6-dihydro-7H-pyrrolo[3,4-d]pyrimidin-7-one, were tested on their effects on human HCN4 currents recorded from transiently transfected CHO cells, in direct comparison to the reference compounds described below: • Ivabradine: [drawing 87] i.e. ((S)-3-{3-[([3,4-Dimethoxy-bicyclo [4.2.0]octa-1,3,5-trien-7-yl]methyl)methylamino]propyl}-1,3,4,5-tetrahydro-7,8-dimethoxy-2H-3-benzazepin-2-on), • Compound X: [drawing 88] i.e. 1-[[1-(3-Chloro-4-fluorophenyl)-5-(3-chloro-5-fluorophenyl)-1 H-pyrazol-3-yl]carbonyl]-imidazolidin-4-one, • Compound Y: [drawing 89] i.e. N-(2-Amino-2-oxoethyl)-1-(3-chloro-4-fluorophenyl)-5-(3-chloro-5-fluorophenyl)-1H-pyrazole-3-carboxamide.\nThe pyrazole compounds X and Y as depicted above, and having structural similarities to the compounds of general formula (I) of the invention, were also tested to investigate whether the pure If current inhibitory effect of the compounds of the invention also extend to structurally closely related compounds.\nDependent on their solubility in the assay buffer, the compounds were tested first at one concentration of 10 µM (compound A, compound Y, compound X, compound B, compound E, compound F and ivabradine) or 1 µM for (compound C and D). If the current blocking of HCN4 at this concentration was higher than 50% the compounds were tested again at five concentrations of a half-logarithmic dilution series starting with either 10 µM or 1 µM as mentioned above (meaning 0.1 µM, 0.3 µM, 1 µM, 3 µM, and 10 µM or 0.01 µM, 0.03 µM 0.1 µM, 0.3 µM and 1 µM).\nTest system: CHO cells transiently expressing the HCN4 channel; NCBI Reference Sequence: NP005468.1 (HCN4 channel); Source CHO: ATCC, CCL-61 LGC Standards GmbH, Wesel, Germany were used.\nIn 35 mm culture dishes CHO cells were seeded at a density allowing single cells to be recorded on the dish holder of the microscope and continuously perfused (at approximately 1 mL/min) with the bath solution described above. All solutions applied to cells including the pipette solution were maintained at room temperature (19 °C - 30 °C). After formation of a Gigaohm seal between the patch electrodes and individual cells (pipette resistance range: 2.0 MΩ - 7.0 MΩ; seal resistance range: > 1 GΩ) the cell membrane across the pipette tip was ruptured to assure electrical access to the cell interior (whole-cell patch-configuration). As soon as a stable seal was established, steady state currents were measured upon the hyperpolarization to -120 mV (2000 ms) from a holding potential of -40 mV. This voltage protocol (as shown in the scheme below) did run 5 times for control conditions and at least ten times for each test concentration. Pulse intervals were 20 s (0.05 Hz). If current amplitude was judged to be too low for measurement, another cell was recorded.\nOnce control recordings have been accomplished, cells were continuously perfused with bath solution containing the tested compounds as detailed above, 0.1 % DMSO or 100 µM ZD7288. […]",
  "data": [
    {"smiles": "O=C1NCc2c1ncnc2-c1cc(-c2cc(Cl)cc(OC(F)(F)F)c2)n(-c2cccnc2)n1", "note": "[Compound A, 4-[5-[3-Chloro-5-(trifluoromethoxy)phenyl]-1-(pyridin-3-yl)-1H-pyrazol-3-yl]-5,6-dihydro-7H-pyrrolo[3,4-d]pyrimidin-7-one]", "values": [
      {"measurement": "IC50", "value": "30 to 580", "unit": "nM"}
    ]}
  ]
}
